From article PMC3280214, “Structure Based Discovery of Small Molecules to Regulate the Activity of Human Insulin Degrading Enzyme” (PLoS ONE, 2012)

How the values were obtained:
HeLa cells = experiment: Cell-based degradation of FITC-insulin; parameters: species or system human; details: for increase in magnitude of IDE activity for insulin degradation in HeLa cells: HeLa cells pre-loaded with FITC-insulin, 20 µM; for permeability through cell membrane: inferred from HeLa cell assay
Description: It was shown that HeLa cells express insulin receptor, and thus take FITC-labeled insulin inside and degrade it intracellularly, [21], [22]. First, FITC-insulin was added to the culture that contains HeLa cells and incubated for 2 hours in order to allow for sufficient uptake of FITC-insulin by HeLa cells. In order to ensure that FITC-labeled insulin is translocating into the cells through insulin uptake receptor, and that cytoplasmic IDE can degrade FITC- insulin, we conducted live cell imaging of HeLa cells, and recorded fluorescence. At various time points compounds, D3, D6, and D10, were added; and cells were washed with Hank's balanced salt solution (HBSS), the these cells were collected and lysed with appropriate buffer. After centrifugation, cell free extracts were used to measure the change in fluorescence by luminometer. […] Compound D10 increased in vivo proteolysis of FITC- insulin by about 32 fold with HeLa cells compared to control group (Fig. 3A). […] These findings are consistent with the data obtained by in vitro assay, showing enhanced degradation of insulin by D10 and D3 (Fig. 3A). […] This figure further verifies the significant increase in fluorescence observed in the presence of compound D10, which is consistent with our in vitro assay (Fig. 3B).
Cells were cultured at 37°C under a humidified atmosphere of 5% CO2 in medium supplemented with 10% fetal bovine serum. Then, FITC-insulin was added to cell medium and incubated for 2 h at 37°C. Next, compounds were loaded at different time intervals separately. Cells were washed with Hank's balanced salt solution (HBSS), then disrupted with 1× passive lysis buffer. Fluorescence was measured with a luminescence multi-label plate leader, and changes in fluorescence was imaged by fluorescence microscope at Burc Laboratory (Istanbul, Turkey).

mutant IDE (Gln363Ala) = target: T1, mutant IDE (Gln363Ala) (Homo sapiens, UniProt P14735, Q363A); experiment: FITC-insulin-mAb degradation by mutant IDE (Gln363Ala); assay type: biochemical; details: Gln363Ala vs wild type IDE; 20 µM D10
T1 construct: made in house; host or cells: E. coli (BL21 inferred, as for the wild type)
T1 sequence (P14735 1-1019 Q363A): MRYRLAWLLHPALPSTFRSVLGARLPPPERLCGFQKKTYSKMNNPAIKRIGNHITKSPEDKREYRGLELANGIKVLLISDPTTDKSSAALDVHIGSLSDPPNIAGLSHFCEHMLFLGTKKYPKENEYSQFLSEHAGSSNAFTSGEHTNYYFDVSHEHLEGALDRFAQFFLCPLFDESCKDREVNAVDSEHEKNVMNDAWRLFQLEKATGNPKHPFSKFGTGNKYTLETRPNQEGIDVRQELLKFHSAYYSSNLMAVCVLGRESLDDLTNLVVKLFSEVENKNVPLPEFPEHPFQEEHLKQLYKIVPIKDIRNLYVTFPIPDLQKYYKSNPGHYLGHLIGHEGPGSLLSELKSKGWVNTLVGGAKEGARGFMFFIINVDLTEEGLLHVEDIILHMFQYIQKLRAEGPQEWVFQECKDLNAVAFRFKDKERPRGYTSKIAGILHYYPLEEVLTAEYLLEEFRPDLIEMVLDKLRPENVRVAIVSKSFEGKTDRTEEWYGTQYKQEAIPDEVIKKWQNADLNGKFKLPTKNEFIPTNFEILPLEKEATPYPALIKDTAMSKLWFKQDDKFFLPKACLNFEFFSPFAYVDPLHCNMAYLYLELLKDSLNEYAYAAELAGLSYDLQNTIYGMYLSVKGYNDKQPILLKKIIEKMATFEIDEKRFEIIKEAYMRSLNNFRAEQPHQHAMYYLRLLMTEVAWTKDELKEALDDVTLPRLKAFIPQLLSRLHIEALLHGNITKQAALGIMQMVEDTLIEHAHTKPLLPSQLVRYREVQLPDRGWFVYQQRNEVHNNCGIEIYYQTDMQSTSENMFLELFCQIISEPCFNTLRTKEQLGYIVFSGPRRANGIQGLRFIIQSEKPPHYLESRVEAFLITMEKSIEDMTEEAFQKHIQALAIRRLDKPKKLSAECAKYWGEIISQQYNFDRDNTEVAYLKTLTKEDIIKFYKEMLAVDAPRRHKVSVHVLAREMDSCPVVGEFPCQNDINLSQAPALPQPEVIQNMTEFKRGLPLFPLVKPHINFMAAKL
Description: Since D10 has been found as the strongest activator of IDE towards the proteolysis of insulin, we analyzed the binding site of the compound D10 for the further analysis. According to the computational results, D10 binds to Gln363 at the IDE exosite and His332 (Fig. 1D). We carried out site-directed mutagenesis by replacing these amino acids into Ala in order to verify that D10 indeed binds to this region via these amino acids. We first mutated Gln363 to Ala and then expressed and purified mutant protein through nickel resin. The effect of D10 on the proteolytic activity of mutant IDE (Gln363Ala) was measured towards FITC-insulin-mAb degradation. […] The activation was about 49-fold in the presence of D10 with wild type IDE (Fig. 2B). Although mutant IDE activity was less responsive to D10 compound compared to wild type IDE, it appeared as if D10 were interacting with IDE through […] and could enhance the activity of mutant IDE. […]
The utility of these novel compounds were tested on degradation of insulin by IDE. […] The proteolysis of insulin by IDE was monitored by measuring the changes in fluorescence, where the reaction was carried out with 100 nM of FITC- insulin-mAb and IDE (80 ng) in 100 µl KH2PO4 buffer at a pH of 7.3. […] The increase in fluorescence was monitored by using Fluoroskan Ascent FL microplate reader (Thermo).

| Compound | increase in magnitude of IDE activity for insulin degradation in HeLa cells (HeLa cells) | permeability through cell membrane (HeLa cells) | reduction of compound-enhanced activation with mutant IDE (mutant IDE (Gln363Ala)) |
| --- | --- | --- | --- |
| COc1ccc(C2C(C(=O)Nc3ccccc3)=C(C)N=c3sc(=Cc4cn(C)nc4C)c(=O)n32)cc1 (centres unmarked) [Compound D3] | ~65% | permeable through cell membrane | – |
| Cc1nn(-c2ccccc2)c2nc(-c3cccc([N+](=O)[O-])c3)n3c4ccccc4nc3c2c1=O [Compound D10] | ~240% | permeable through cell membrane | 10 fold |
